Experimental data: PubChem BioAssay AID1963440 (Molecular Pharmacology Branch, DTP, NCI, 2024)
pIC50: −log10 of the molar value. “And” between values parts separate entries of the source, which are not always exact repeats. Equal values may be shown once.

Test system: NCI-H1417 complex spheroids, growth % test/control
Test: Anticancer human tumor NCI-H1417 cell line growth inhibition [Asc];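 note: spheroids exposed to compounds for 7 days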;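 for viability, T/C: 100% = DMSO vehicle control wells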
Conditions: for viability, T/C: stronger effect = lower value; active = viability on the fitted dose curve at most 10% of control; inactive = the rest
Outline: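 Stromal components (HUVEC and hMSC) are co-assembled with the cancer cells into multicellular spheroids. Drugs are then added singly or paired, at concentrations falling by half-log increments from a clinically achievable maximum, capped at 10 microM without known Cmax.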

[1] = curve of first compound, second compound 0.1 µM
[2] = curve of first compound, second compound 0.316 µM
[3] = curve of first compound, second compound 1 µM
[4] = curve of first compound, second compound 3.16 µM
[5] = curve of first compound, second compound 10 µM
[6] = second compound 0.1 µM, first compound 0.0316 µM
[7] = second compound 0.1 µM, first compound 0.1 µM
[8] = second compound 0.316 µM, first compound 0.0316 µM
[9] = second compound 0.316 µM, first compound 0.1 µM
[10] = second compound 1 µM, first compound 0.0316 µM
[11] = second compound 1 µM, first compound 0.1 µM

NC(=O)C(=Cn1cnc(-c2cc(C(F)(F)F)cc(C(F)(F)F)c2)n1)c1cncnc1 + Cc1c(S(C)(=O)=O)c(-c2cc(F)cc(N3CCN(c4ccc(NS(=O)(=O)c5ccc(NC(CCN6CCC(C(=O)OCCCP(=O)(O)O)CC6)CSc6ccccc6)c(S(=O)(=O)C(F)(F)F)c5)cc4)CC3)c2)c(-c2ccc(Cl)cc2)n1C(C)C
7.95: pIC50 [1]
active: viability, T/C (second compound 0.1 µM, first compound 0.0949 µM) 8.22% | viability, T/C (second compound 0.1 µM, first compound 0.3 µM) 3.52% | viability, T/C (second compound 0.316 µM, first compound 0.0949 µM) 3.84% | viability, T/C (second compound 0.316 µM, first compound 0.3 µM) 1.35% | viability, T/C (second compound 1 µM, first compound 0.000949 µM) 8.75% | viability, T/C (second compound 1 µM, first compound 0.003 µM) 8.33% | viability, T/C (second compound 1 µM, first compound 0.00949 µM) 5.84% | viability, T/C (second compound 1 µM, first compound 0.03 µM) 3.45% | viability, T/C (second compound 1 µM, first compound 0.0949 µM) 1.82% | viability, T/C (second compound 1 µM, first compound 0.3 µM) 0.83% | viability, T/C (second compound 3.16 µM, first compound 0.000949 µM) 2.8% | viability, T/C (second compound 3.16 µM, first compound 0.003 µM) 2.41% | viability, T/C (second compound 3.16 µM, first compound 0.00949 µM) 2.15% | viability, T/C (second compound 3.16 µM, first compound 0.03 µM) 2.26% | viability, T/C (second compound 3.16 µM, first compound 0.0949 µM) 1.59% | viability, T/C (second compound 3.16 µM, first compound 0.3 µM) 0.92% | viability, T/C (second compound 10 µM, first compound 0.000949 µM) 2.33% | viability, T/C (second compound 10 µM, first compound 0.003 µM) 1.83% | viability, T/C (second compound 10 µM, first compound 0.00949 µM) 2.16% | viability, T/C (second compound 10 µM, first compound 0.03 µM) 2.37% | viability, T/C (second compound 10 µM, first compound 0.0949 µM) 1.29% | viability, T/C (second compound 10 µM, first compound 0.3 µM) 0.5%
inactive: viability, T/C (second compound 0.1 µM, first compound 0.000949 µM) 75.4% | viability, T/C (second compound 0.1 µM, first compound 0.003 µM) 77.7% | viability, T/C (second compound 0.1 µM, first compound 0.00949 µM) 51.9% | viability, T/C (second compound 0.1 µM, first compound 0.03 µM) 24.1% | viability, T/C (second compound 0.316 µM, first compound 0.000949 µM) 38.6% | viability, T/C (second compound 0.316 µM, first compound 0.003 µM) 29.7% | viability, T/C (second compound 0.316 µM, first compound 0.00949 µM) 20.7% | viability, T/C (second compound 0.316 µM, first compound 0.03 µM) 10.5%
> 9.02: pIC50 [2] | pIC50 [3] | pIC50 [4] | pIC50 [5]

C#Cc1c(F)ccc2cc(O)cc(-c3ncc4c(N5CC6CCC(C5)N6)nc(OCC56CCCN5CC(F)C6)nc4c3F)c12 (configuration not stated)
< 5.00: pIC50 (curve of compound)
inactive: viability, T/C (compound 0.0316 µM) 93% and 102% and 110% | viability, T/C (compound 0.1 µM) 89.5% and 97.4% and 102% | viability, T/C (compound 0.316 µM) 94.3% (2×) and 101% | viability, T/C (compound 1 µM) 106% and 98.8% and 97.6% | viability, T/C (compound 3.16 µM) 96.5% and 100% and 101% | viability, T/C (compound 10 µM) 72.5% and 96.5% and 83%

NC1CCC(NC2CC2c2ccccc2)CC1 (configuration not stated) + Cc1c(S(C)(=O)=O)c(-c2cc(F)cc(N3CCN(c4ccc(NS(=O)(=O)c5ccc(NC(CCN6CCC(C(=O)OCCCP(=O)(O)O)CC6)CSc6ccccc6)c(S(=O)(=O)C(F)(F)F)c5)cc4)CC3)c2)c(-c2ccc(Cl)cc2)n1C(C)C
> 9.50: pIC50 [2] | pIC50 [3] | pIC50 [4] | pIC50 [5]
< 7.00: pIC50 [1]
active: viability, T/C (second compound 3.16 µM, first compound 0.000316 µM) 1.88% | viability, T/C (second compound 3.16 µM, first compound 0.001 µM) 1.85% | viability, T/C (second compound 3.16 µM, first compound 0.00316 µM) 2.09% | viability, T/C (second compound 3.16 µM, first compound 0.01 µM) 1.09% | viability, T/C (second compound 3.16 µM, first compound 0.0316 µM) 1.14% | viability, T/C (second compound 3.16 µM, first compound 0.1 µM) 2.64% | viability, T/C (second compound 10 µM, first compound 0.000316 µM) 1.53% | viability, T/C (second compound 10 µM, first compound 0.001 µM) 1.86% | viability, T/C (second compound 10 µM, first compound 0.00316 µM) 1.9% | viability, T/C (second compound 10 µM, first compound 0.01 µM) 1.64% | viability, T/C (second compound 10 µM, first compound 0.0316 µM) 2.09% | viability, T/C (second compound 10 µM, first compound 0.1 µM) 1.63%
inactive: viability, T/C (second compound 0.1 µM, first compound 0.000316 µM) 66.5% | viability, T/C (second compound 0.1 µM, first compound 0.001 µM) 69% | viability, T/C (second compound 0.1 µM, first compound 0.00316 µM) 61.8% | viability, T/C (second compound 0.1 µM, first compound 0.01 µM) 65.1% | viability, T/C [6] 65.7% | viability, T/C [7] 64.3% | viability, T/C (second compound 0.316 µM, first compound 0.000316 µM) 45.1% | viability, T/C (second compound 0.316 µM, first compound 0.001 µM) 43.2% | viability, T/C (second compound 0.316 µM, first compound 0.00316 µM) 34.7% | viability, T/C (second compound 0.316 µM, first compound 0.01 µM) 40.1% | viability, T/C [8] 38.8% | viability, T/C [9] 38.8% | viability, T/C (second compound 1 µM, first compound 0.000316 µM) 12.5% | viability, T/C (second compound 1 µM, first compound 0.001 µM) 14.6% | viability, T/C (second compound 1 µM, first compound 0.00316 µM) 16.3% | viability, T/C (second compound 1 µM, first compound 0.01 µM) 11.2% | viability, T/C [10] 16.2% | viability, T/C [11] 15.7%

C=C(F)C(=O)N1CCN(c2nc(OCC3CCCN3C)nc3c2CCN(c2cccc4cccc(Cl)c24)C3)CC1CC#N (configuration not stated) + CNC(C)C(=O)NC1CN(S(=O)(=O)c2cccc(S(=O)(=O)N3CCC4CCC(C(=O)NC(c5ccccc5)c5ccccc5)N4C(=O)C(NC(=O)C(C)NC)C3)c2)CCC2CCC(C(=O)NC(c3ccccc3)c3ccccc3)N2C1=O
5.51: pIC50 [2]
5.34: pIC50 (curve of first compound, second compound 0.01 µM)
5.40: pIC50 [1]
5.42: pIC50 (curve of first compound, second compound 0.0316 µM)
active: viability, T/C (second compound 0.01 µM, first compound 10 µM) 0.22% | viability, T/C (second compound 0.0316 µM, first compound 10 µM) 0.2% | viability, T/C (second compound 0.1 µM, first compound 10 µM) 0.2% | viability, T/C (second compound 0.316 µM, first compound 10 µM) 0.21% | viability, T/C (second compound 1 µM, first compound 10 µM) 1.03%
5.49: pIC50 [3]
inactive: viability, T/C (second compound 0.01 µM, first compound 0.0316 µM) 111% | viability, T/C (second compound 0.01 µM, first compound 0.1 µM) 101% | viability, T/C (second compound 0.01 µM, first compound 0.316 µM) 106% | viability, T/C (second compound 0.01 µM, first compound 1 µM) 92.2% | viability, T/C (second compound 0.01 µM, first compound 3.16 µM) 76.2% | viability, T/C (second compound 0.0316 µM, first compound 0.0316 µM) 98.6% | viability, T/C (second compound 0.0316 µM, first compound 0.1 µM) 102% | viability, T/C (second compound 0.0316 µM, first compound 0.316 µM) 93.2% | viability, T/C (second compound 0.0316 µM, first compound 1 µM) 105% | viability, T/C (second compound 0.0316 µM, first compound 3.16 µM) 58.8% | viability, T/C [6] 90.6% | viability, T/C [7] 99.5% | viability, T/C (second compound 0.1 µM, first compound 0.316 µM) 89.8% | viability, T/C (second compound 0.1 µM, first compound 1 µM) 90% | viability, T/C (second compound 0.1 µM, first compound 3.16 µM) 62.3% | viability, T/C [8] 94.5% | viability, T/C [9] 90.8% | viability, T/C (second compound 0.316 µM, first compound 0.316 µM) 94.8% | viability, T/C (second compound 0.316 µM, first compound 1 µM) 97.1% | viability, T/C (second compound 0.316 µM, first compound 3.16 µM) 48.9% | viability, T/C [10] 95.2% | viability, T/C [11] 101% | viability, T/C (second compound 1 µM, first compound 0.316 µM) 106% | viability, T/C (second compound 1 µM, first compound 1 µM) 101% | viability, T/C (second compound 1 µM, first compound 3.16 µM) 50.9%
